Reference: US20070037253A1, “Methods and compositions for treatment of arthritis and cancer” (priority 2003, published 2007)
Values joined by “and” are separate entries in the source; they are usually repeats but may differ in a detail not shown here. Identical values can stand only once. Where a SMILES comes first, the peptide text is derived from it.

Tests used:
Assay type in all cases: biochemical
collagenase I (MMP-1) = test: Collagenase activity assay, collagen thin film (collagen type II substrate); settings: for Collagenase (% Inhibition): collagen thin film, collagen type II, peptide concentration not given
Protocol: Collagenase activity was assayed by collagen thin film method using collagen type II as substrate. IC50 values were graphically determined from the inhibition curves, constructed on the basis of the in vitro results of collagenase assays. Results are the mean±SD of 3 separate experiments done in triplicates. (•), P-NT.II; (□), PIP [59-67] dimer; (Δ), PIP [59-67} monomer; (∇), LY 315920.
Collagenase activity assay: Using collagen thin film as the substrate, a quantitative method was established to measure the enzymatic activity of the MMPs (principally collagenase). Collagen type II (Sigma) solution (4 μL, 3 mg/mL in 0.012 N HCl) was added to each well of 96-well plates and precipitated by slowly increasing the pH with 4 μL of H2O and 8 μL of 0.012 N NaOH. The plate was dried at 23° C. for 24 hr, washed with H2O, and dried again at 23° C., resulting in a thin film containing 12 μg of collagen that was tightly bound to the bottom of the wells. Enzymatic reactions of the collagenase I (with and without peptide inhibitors) against the collagen films were carried out in quadruplicate at 24° C. for 16 h. The digested portion of the film was washed away, while the undigested portion was fixed for 3 h with 0.1% Coomassie brilliant blue R in 10% acetic acid and 45% methanol, and the wells washed and dried.

MMP-2 = target: T1, MMP-2 (Homo sapiens, UniProt P08253); test: Gelatin zymography of human synovial fluid pre-incubated with inhibitors; settings: 5 or 10 μM, pre-incubated 37° C. 1 h
T1 construct: from tissue; host or cells: human synovial fluid
T1 sequence (P08253 110-660): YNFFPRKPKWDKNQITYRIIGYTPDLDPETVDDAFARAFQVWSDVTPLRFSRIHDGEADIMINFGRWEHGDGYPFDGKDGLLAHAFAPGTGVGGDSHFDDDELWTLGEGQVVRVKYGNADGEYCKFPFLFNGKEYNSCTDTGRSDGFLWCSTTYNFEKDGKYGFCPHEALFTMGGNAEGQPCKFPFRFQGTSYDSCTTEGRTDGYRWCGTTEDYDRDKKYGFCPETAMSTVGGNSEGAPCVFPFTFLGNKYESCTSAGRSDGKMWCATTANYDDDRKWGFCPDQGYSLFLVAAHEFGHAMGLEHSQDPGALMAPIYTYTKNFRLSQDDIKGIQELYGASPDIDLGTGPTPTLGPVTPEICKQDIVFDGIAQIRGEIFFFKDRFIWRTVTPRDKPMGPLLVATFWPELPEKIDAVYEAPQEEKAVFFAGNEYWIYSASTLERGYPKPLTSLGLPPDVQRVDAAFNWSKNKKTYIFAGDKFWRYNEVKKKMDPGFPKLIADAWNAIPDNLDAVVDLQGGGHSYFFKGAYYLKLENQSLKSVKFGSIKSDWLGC
Protocol: (A) Samples containing human synovial fluid (5 μL) and 5 or 10 μM of peptides were pre-incubated at 37° C. for 1 h in Tris-HCl buffer prior to electrophoresis on 10% SDS-PAGE gel containing gelatin (0.1%). […] (B) The mean density (OD/mm2)±SD (n=3), representing MMP-2 activity, obtained by scanning the zymograms using the GS-710 calibrated imaging densitometer (Bio Rad, USA).
Gelatin zymography: human synovial fluid, purified human recombinant MMP-2 and -9 or APMA-activated concentrated culture supernatant samples (10 μL) was mixed (1:1) with Laemmli sample buffer, loaded on 4% acrylamide stacking gel and electrophoresed (120 V) at 4° C. on a 10% acrylamide-resolving minigel containing 0.1% gelatin. After electrophoresis for 1 h, the gels were soaked in 2.5% Triton X-100 on a shaker for 1 h, changing the solution after 30 min, to eliminate SDS. After overnight incubation in zymogen activation buffer [50 mM Tris-HCl, pH 7.5, containing 10 mM CaCl2 and 5 mM ZnCl2] at 37° C., the gels were rinsed in distilled water, and stained for 3 hr with […], after which clear bands of digested gelatin were clearly visible. The gels were briefly rinsed in distilled water and scanned by the Bio-Rad GS-710 Calibrated Imaging Densitometer.

[1] = target: T2, purified human synovial sPLA2 (human Type IIA sPLA2) (Homo sapiens, UniProt P14555); test: sPLA2 inhibition, 3H-arachidonate-labelled E. coli membrane assay; settings: fixed peptide concentration (5 μM); 3H-labelled E. coli membrane assay; read-out: % Inhibition (mean ± SD)
T2 construct: purchased Cayman Chemicals, USA
T2 sequence (P14555 21-144): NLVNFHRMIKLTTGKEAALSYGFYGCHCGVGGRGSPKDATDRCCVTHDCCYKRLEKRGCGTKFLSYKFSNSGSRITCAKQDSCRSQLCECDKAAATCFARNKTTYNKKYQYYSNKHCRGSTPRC
Protocol: In brief, [^3H] arachidonate-labeled E. coli membranes (0.005 mCi/mL; 5.8 μCi/μmol, NEN) were used as substrate, and 100 mM Tris-HCl—25 mM CaCl2, pH 7.5 solution as an assay buffer. The reaction mixture contained 20 μL of substrate, 0.85 pmole of purified human synovial sPLA2 (human Type IIA sPLA2, Cayman Chemicals, USA), and an increasing concentrations of the family of synthetic peptides derived from the sequence of PIP. The final volume of the reaction mixture was adjusted to 250 μL with an assay buffer. After incubation of the mixture (37° C., 1 h) and termination of the reaction with 750 μL of chilled PBS containing 1% BSA, microfuge tubes containing the samples were centrifuged (10,000 g at 4° C. for 15 min), and 500 μL aliquots of the supernatant taken to measure the amount of [^3H]-labeled arachidonate released from the E. coli membrane using liquid scintillation counting (Multipurpose Scintillation Counter LS 6500; Beckman, USA). As controls, sPLA2 was pre-incubated with the assay buffer alone. All samples, including controls, were performed in triplicate and plotted as the percentage inhibition relative to negative controls.
A sigmoid dose response curve was generated to allow calculation of the IC50 values. All samples were performed in triplicate. Results were analyzed by nonlinear regression with GraphPad Prism (version 2.01) and expressed as the percentage of inhibition relative to control values.

SMILES	IC50 (collagenase I (MMP-1); collagen thin film method, FIG. 2, read-out: IC50 (mean±SD), collagenase I (MMP-1))	Collagenase (% Inhibition) (collagenase I (MMP-1))	MMP-2 gelatinase activity (zymogram densitometry) vs control (MMP-2)	inhibition at 5 µM [1]
CC[C@H](C)[C@H](NC(=O)[C@H](Cc1ccc(O)cc1)NC(=O)[C@@H](NC(=O)CNC(=O)[C@H](CC(=O)O)NC(=O)[C@H](Cc1c[nH]c2ccccc12)NC(=O)[C@@H](NC(=O)[C@H](Cc1c[nH]cn1)NC(=O)[C@@H](NC(=O)[C@H](CC(=O)O)NC(=O)[C@@H](NC(=O)[C@H](CCCNC(=N)N)NC(=O)CNC(=O)[C@@H](N)CC(C)C)C(C)C)[C@@H](C)CC)C(C)C)C(C)C)C(=O)N[C@@H](CCCNC(=N)N)C(=O)NCC(=O)N[C@@H](CCCNC(=N)N)C(=O)O [P-NT.II] (H-LGRVDIHVWDGVYIRGR-OH; N-terminus and C-terminus assumed)	8.43 ± 1.17 µM	64.2 ± 5.6% and 64.2 ± 5.5%	did not show any significant difference from the control	
CC[C@H](C)[C@H](NC(=O)[C@H](CC(=O)O)NC(=O)[C@@H](N)C(C)C)C(=O)N[C@@H](Cc1c[nH]cn1)C(=O)N[C@H](C(=O)N[C@@H](Cc1c[nH]c2ccccc12)C(=O)N[C@@H](CC(=O)O)C(=O)NCC(=O)N[C@H](C(=O)O)C(C)C)C(C)C [PIP [59-67] monomer] (H-VDIHVWDGV-OH; N-terminus and C-terminus assumed)		34.2 ± 4.7%	did not show any significant difference from the control	56.4 ± 3.21%
